In data set [1] the test system is Cortical neurone. Nature of the data set: Neuroprotective activity against NMDA-induced excitotoxic cell death in C57BL/6 mouse primary cortical neurons assessed as cell viability at 10 uM by CCK8 assay (reference value: 16.31 +/- 3.19 %). Type of data set: functional. The note with it: C57BL/6, Cortical neurone, read-out: Activity. In general terms: Tetrazolium dyes change colour on reduction, which living cells bring about.

Data set [2] has as its system Cortical neurone. As to the kind of experiment: Neuroprotective activity against OGD/R-induced ischemic injury in C57BL/6 mouse primary cortical neurons assessed as cell viability at 10 uM by CCK8 assay (reference value: 21.96 +/- 10.86 %). Particulars: C57BL/6, Cortical neurone, read-out: Activity. Format: functional.
Data set [3] can be described thus: Half life in ICR mouse at 5 mg/kg, iv by LC-MS/MS analysis. Format: ADME, organism-based. The note with it: in vivo.
Data set [4] in a line: Tmax in ICR mouse at 5 mg/kg, iv by LC-MS/MS analysis. Format: ADME, organism-based. Particulars: in vivo.
Data set [5] in a line: Cmax in ICR mouse at 5 mg/kg, iv by LC-MS/MS analysis. Type of data set: ADME, organism-based. Particulars: in vivo.
A short description of data set [6]: AUC (0 to t) in ICR mouse at 5 mg/kg, iv by LC-MS/MS analysis. Type of data set: ADME, organism-based. Particulars: in vivo.
Data set [7] is described as follows: AUC (0 to infinity) in ICR mouse at 5 mg/kg, iv by LC-MS/MS analysis. Type of data set: ADME, organism-based. The note with it: in vivo.
The nature of data set [8]: Apparent volume of distribution in ICR mouse at 5 mg/kg, iv by LC-MS/MS analysis. Type of data set: ADME, organism-based. The note with it: in vivo, read-out: Vz.
Data set [9] is described as follows: Clearance in ICR mouse at 5 mg/kg, iv by LC-MS/MS analysis. Type of data set: ADME, organism-based. Particulars: in vivo.
The nature of data set [10]: MRT (0 to t) in ICR mouse at 5 mg/kg, iv by LC-MS/MS analysis. Format: ADME, organism-based. Particulars: in vivo.
A short description of data set [11]: MRT (0 to infinity) in ICR mouse at 5 mg/kg, iv by LC-MS/MS analysis. Format: ADME, organism-based. Particulars: in vivo.
Data set [12] in a line: Half life in ICR mouse at 25 mg/kg, IG by LC-MS/MS analysis. Type of data set: ADME, organism-based. Particulars: in vivo, po.
Data set [13] can be described thus: Tmax in ICR mouse at 25 mg/kg, IG by LC-MS/MS analysis. Type of data set: ADME, organism-based. Particulars: in vivo, po.
Data set [14] in a line: Cmax in ICR mouse at 25 mg/kg, IG by LC-MS/MS analysis. Format: ADME, organism-based. Particulars: in vivo, po.
The nature of data set [15]: AUC (0 to t) in ICR mouse at 25 mg/kg, IG by LC-MS/MS analysis. Format: ADME, organism-based. The note with it: in vivo, po.
Data set [16] is described as follows: AUC (0 to infinity) in ICR mouse at 25 mg/kg, IG by LC-MS/MS analysis. Type of data set: ADME, organism-based. The note with it: in vivo, po.
The nature of data set [17]: MRT (0 to t) in ICR mouse at 25 mg/kg, IG by LC-MS/MS analysis. Format: ADME, organism-based. The note with it: in vivo, po.
A short description of data set [18]: MRT (0 to infinity) in ICR mouse at 25 mg/kg, IG by LC-MS/MS analysis. Format: ADME, organism-based. The note with it: in vivo, po.
The nature of data set [19]: Oral bioavailability in ICR mouse at 25 mg/kg by LC-MS/MS analysis. Type of data set: ADME, organism-based. Particulars: in vivo.

This note sets out measurements from ChEMBL document CHEMBL6096677, “Discovery of HZS60 as a Novel Brain Penetrant NMDAR/TRPM4 Interaction Interface Inhibitor with Improved Activity and Pharmacokinetic Properties for the Treatment of Cerebral Ischemia” (J Med Chem, 2025).

With `CCN(CCN)Cc1cccc(Br)c1`, the viability at 10 µM in data set [1] amounted to 63.2%; in [2], 26.5%. Further, the half-life in data set [3] was 1.82 h; in data set [12], 2.07 h. For the same compound, the Tmax in data set [4] stood at 4.98 min; in [13], 0.583 h. Moreover, the Cmax in data set [5] amounted to 207 ng/mL; in data set [14], 348 ng/mL. In addition, the AUC(0-t) in data set [6] is 282 ng·h/mL; in data set [15], 914 ng·h/mL. The AUC(0-inf) in data set [7] amounted to 295 ng·h/mL; in data set [16], 980 ng·h/mL. In addition, in [8], the Vd came to 44.1 L/kg. Further, the clearance in [9] was 293 mL/min/kg. The MRT last in data set [10] turned out to be 1.76 h; in [17], 2.38 h. The results for the MRT inf in data set [11] and in data set [18] were 2.15 h and 2.96 h, respectively. In [19], this compound had a bioavailability of 66.4%.
As for `CCN(CCN)Cc1cc(C#N)ccc1Br`, in data set [1], the viability at 10 µM was 77.8%.
Take `CCN(CCN)C(C)c1cccc(Br)c1F` (configuration not stated): the viability at 10 µM turned out to be 77% in [1] and 55.6% in data set [2].
Regarding `CCN(CCN)Cc1cc(Br)ccc1F`, the viability at 10 µM in data set [1] was 87.1%.
As to `CCN(CCN)C(C)c1cc(C#N)ccc1F` (configuration not stated), the viability at 10 µM in data set [1] was found to be 82.4%; in data set [2] it was 34.6%.
As to `CCN(CCN)Cc1cc(Br)ccc1Cl`, the viability at 10 µM in data set [1] turned out to be 84.9%.
On to `CCN(CCN)C1(c2cccc(Br)c2)CC1`, for which the viability at 10 µM in data set [1] is 39.1%.
Same read-out and setting: next, `CCN(CCN)Cc1c(F)ccc(Br)c1F`: 97.9%.
With `NC1CCN(Cc2cccc(Br)c2)C1` (configuration not stated), in data set [1], the viability at 10 µM was 20.1%.
The same measure, in the same setting: then `CCN(CCN)Cc1ccc(F)c(Br)c1`, with 26.6%; and `CCN(CCN)Cc1cc(F)cc(C#N)c1`, with 24%; and `CCN(CCN)Cc1cccc(Br)c1I`, with 11.5%.
Turning to `CCN(CCN)Cc1cccc([N+](=O)[O-])c1`, in [1], the viability at 10 µM was 36%.
`CCN(CCN)C(C)c1cccc(C#N)c1` (configuration not stated): the viability at 10 µM in [1] turned out to be 85.7%; in [2], 69.7%.
For the compound `CCN(CCN)C(C)c1cc(C#N)ccc1Br` (configuration not stated), the viability at 10 µM in data set [1] stood at 55%.
For the compound `CCN(CCN)C(C)(C)c1cccc(Br)c1`, the viability at 10 µM in data set [1] is 52.5%.
For `CCN(CCN)Cc1cc(Br)cc(C#N)c1`, the viability at 10 µM in data set [1] turned out to be 33%.
For `CCN(CCN)C(C)c1c(F)ccc(Br)c1F` (configuration not stated), the viability at 10 µM in data set [1] was 51.6%.
Take `CCN(CCN)Cc1cccc(Br)c1F`: in data set [1], the viability at 10 µM was found to be 86.5%.
Still for that read-out and setting: then `NC1CCCN(Cc2cccc(Br)c2)C1` (configuration not stated), with 33%; and `CCN(CCN)Cc1cccc(-c2ccccc2)c1`, with 24.9%; and `CCCN(CCN)Cc1cccc(Br)c1`, with 44.6%.
Regarding `CCN(CCNC)Cc1cccc(Br)c1`, in data set [1], the viability at 10 µM came out at 17.6%.
In the case of `CCN(CCN)Cc1cccc(C#N)c1F`, the viability at 10 µM in data set [1] turned out to be 79.7%.
As to `CCN(CCN)Cc1cc(C#N)ccc1Cl`, the viability at 10 µM in [1] was found to be 86.5%.
Regarding `CCN(CCN)C(C)c1cccc(C#N)c1Br` (configuration not stated), the figures for the viability at 10 µM in data set [1] and in data set [2] were 67.4% and 43.2%, respectively.
As to `CCN(CCN)C(C)c1cc(Br)ccc1Cl` (configuration not stated), the viability at 10 µM in data set [1] was 81.6%; in data set [2] it was 46.6%.
For `CCN(CCN)Cc1cc(F)cc(Br)c1`, the viability at 10 µM in data set [1] was found to be 18.3%.
Turning to `CCN(CCN1CCCC1)Cc1cccc(Br)c1`, the viability at 10 µM in data set [1] was found to be 19.3%.
For `CCN(CCN)Cc1cccc(Cl)c1`, in data set [1], the viability at 10 µM is 44.3%.
Still for that read-out and setting: then `CCN(CCN)Cc1ccc(Br)cc1`, with 21.2%.
On to `CCN(CCN)C(C)c1cccc(Br)c1` (configuration not stated), for which the viability at 10 µM in data set [1] amounted to 95.9%; in data set [2], 53.2%.
Take `CCN(CCN)C(C)c1cc(Br)ccc1Br` (configuration not stated): the viability at 10 µM in data set [1] was found to be 46.6%.
On the same count and under the same terms, then `CCN(CCN(C)C)Cc1cccc(Br)c1`, with 18.4%.
Still for that read-out and setting: next, `CCN(CCN)Cc1c(F)ccc(C#N)c1F`: 90.4%.
`CCN(CCN)C(C)c1c(Cl)ccc(C#N)c1F` (configuration not stated): the viability at 10 µM is 64.5% in [1] and 38.8% in [2].
Turning to `CCN(CCN)Cc1cccc(Br)c1Br`, the viability at 10 µM in [1] was 86.5%.
In the case of `CCN(CCN)Cc1ccccc1Br`, the viability at 10 µM in [1] is 46.2%.
`CCC(c1cccc(Br)c1)N(CC)CCN` (configuration not stated): in [1], the viability at 10 µM worked out at 38.3%.
Regarding `CCN(CCN)Cc1cccc(C#N)c1Cl`, the viability at 10 µM in data set [1] was determined as 93.1%.
Turning to `CCN(CCN)C(C)c1cccc(C#N)c1F` (configuration not stated), the viability at 10 µM is 70.4% in data set [1] and 44.5% in [2].
For `CCN(CCN)C(C)c1cc(C#N)ccc1Cl` (configuration not stated), the viability at 10 µM in data set [1] came to 77.7%; in data set [2], 61.1%.
For `CCN(CCN)Cc1c(Cl)ccc(C#N)c1F`, the viability at 10 µM in data set [1] stood at 82.9%.
Regarding `CCN(CCN)Cc1c(F)ccc(C#N)c1Cl`, the viability at 10 µM in [1] was found to be 88%.
Consider `CCN(CCN)C(C)c1cccc(C#N)c1Cl` (configuration not stated), for which the viability at 10 µM in data set [1] was found to be 85.3%; in data set [2] it was 59.8%.
With `CCN(CCN)Cc1cccc(OC)c1`, the viability at 10 µM in data set [1] is 39.6%.
Regarding `CCN(CCN)Cc1cccc(C)c1`, the viability at 10 µM in data set [1] was determined as 22.7%.
In the case of `CCN(CCN)Cc1cccc(I)c1`, in [1], the viability at 10 µM stood at 44%.
Still for that read-out and setting: next, `CCN(CCN)Cc1ccc(Br)c(C#N)c1`: 22.2%.
For the compound `CCN(CCN)C(C)c1cc(Br)ccc1F` (configuration not stated), the viability at 10 µM in [1] was found to be 90.7%; in data set [2], 36.6%.
On to `CCN(CCN)Cc1cccc(C(F)(F)F)c1`, for which the viability at 10 µM in [1] was determined as 16.9%.
As for `CCN(CCN)Cc1cccc(C#N)c1Br`, in data set [1], the viability at 10 µM was 76.5%.
Take `CCN(CCN)Cc1cccc(C#N)c1`: the viability at 10 µM in data set [1] was determined as 92.4%.
Consider `CCN(CCN)Cc1ccc(Cl)c(C#N)c1`, for which, in [1], the viability at 10 µM worked out at 22.6%.
On to `CCN(CCCN)Cc1cccc(Br)c1`, for which the viability at 10 µM in data set [1] was found to be 10.8%.
Regarding `CCN(CCN)Cc1cc(C#N)ccc1I`, the viability at 10 µM in data set [1] came to 74.6%.
Regarding `CCN(CCN)Cc1cc(C#N)ccc1F`, in data set [1], the viability at 10 µM was determined as 68.1%.
On the same count and under the same terms, then `CCN(CCN)Cc1ccc(F)c(C#N)c1`, with 24.1%.
Turning to `CCN(CCN)Cc1cc(Br)ccc1Br`, the viability at 10 µM in [1] was found to be 83.4%.
As to `CCN(CCN)C(C)c1c(F)ccc(C#N)c1Cl` (configuration not stated), the viability at 10 µM stood at 70.5% in data set [1] and 64.3% in data set [2].
In the case of `CCN(CCN)Cc1cccc(F)c1`, the viability at 10 µM in [1] amounted to 32%.
On the same count and under the same terms, next, `CCN(CCN)Cc1cccc(Br)c1Cl`: 47.1%.

For orientation: half-life means the time needed for the level to fall by half in the phase considered. A high value points to slow decline. What is called Tmax is the time from dosing to the highest level. The Cmax is the peak of the concentration-time curve. The term AUC(0-t) denotes the area under the concentration-time curve up to a stated or last time point. High values mean more exposure, low ones less exposure. As usually defined, the AUC(0-inf) is total exposure, with the tail of the curve extrapolated. A lower AUC(0-inf) goes with less exposure. The term clearance denotes the rate of elimination divided by the concentration. Higher therefore signals efficient removal. The MRT last is the average time that molecules of a dose stay in the body. For orientation: MRT inf means the average time that molecules of a dose stay in the body. As a reminder, the bioavailability is dose-corrected exposure relative to a reference, in per cent.
